# Source: ChEMBL document CHEMBL1128014, “Synthesis and biological activity of a potent antiplatelet 7-aminofurochromone” (Bioorg Med Chem Lett, 1994)
# Tests used:
# Homo sapiens [1] = organism: Homo sapiens; test: Potency to inhibit ADP-induced human platelet aggregation was determined relative to compound 1(5-Methyl-3-morpholin-4-yl-6-(2-naphthalene-1-one); assay type: functional
# Homo sapiens [2] = organism: Homo sapiens; test: Compound was tested for its ability to inhibit ADP-induced human platelet aggregation; assay type: functional
# Canis familiaris [3] = test: Effect on mean arterial pressure was determined at an iv dose of 30 ug/kg plus a constant infusion of 3 ug/kg/min in canine model; assay type: functional, Canis lupus familiaris, Artery
# Homo sapiens [4] = organism: Homo sapiens; test: Effect on aggregation of thrombin-stimulated washed human platelets at a concentration of 0.1 uM; assay type: functional
# Homo sapiens [5] = organism: Homo sapiens; test: Effect on PGI2-stimulated cAMP in washed human platelets at a concentration of 0.3 uM +1 ng/mL of PGI2; pmol/5E8 platelets; assay type: functional
# Canis familiaris [6] = test: Time interval between end of drug treatment and restoration of CFR pattern of blood flow at an iv dose of 100 ug/kg plus a constant infusion of 10 ug/kg/min in canine model; assay type: functional, Canis lupus familiaris
# Canis familiaris [7] = test: Effect on mean arterial pressure was determined at an iv dose of 3 ug/kg/60 min in canine model; assay type: functional, Canis lupus familiaris, Artery
# Canis familiaris [8] = test: Effect on mean arterial pressure was determined at an iv dose of 10 ug/kg plus a constant infusion of 1 ug/kg/min in canine model; assay type: functional, Canis lupus familiaris, Artery
# Canis familiaris [9] = test: Effect on heart rate was determined at an iv dose of 100 ug/kg plus a constant infusion of 10 ug/kg/min in a canine model; assay type: functional, Canis lupus familiaris
# Canis familiaris [10] = test: Effect on Cyclical Flow Reductions induced by intracoronary platelet aggregation in stenosed canine coronary arteries at an iv dose of 3 ug/kg/60 min in canine model; assay type: functional, Canis lupus familiaris
# Canis familiaris [11] = test: Effect on Cyclical Flow Reductions induced by intracoronary platelet aggregation in stenosed canine coronary arteries at an iv dose of 10 ug/kg plus a constant infusion of 1 ug/kg/min in canine model; assay type: functional, Canis lupus familiaris
# Canis familiaris [12] = test: Time interval between start of drug treatment and first change in CFR pattern of blood flow at an iv dose of 10 ug/kg/60 min in a canine model; assay type: functional, Canis lupus familiaris
# Homo sapiens [13] = organism: Homo sapiens; test: Effect on aggregation of thrombin-stimulated washed human platelets at a concentration of 1 uM; assay type: functional
# Canis familiaris [14] = test: Effect on Cyclical Flow Reductions induced by intracoronary platelet aggregation in stenosed canine coronary arteries at an iv dose of 10 ug/kg/60 min in a canine model; assay type: functional, Canis lupus familiaris
# Canis familiaris [15] = test: Effect on heart rate was determined at an iv dose of 30 ug/kg plus a constant infusion of 3 ug/kg/min in a canine model; assay type: functional, Canis lupus familiaris
# Canis familiaris [16] = test: Time interval between start of drug treatment and first change in CFR pattern of blood flow at an iv dose of 30 ug/kg plus a constant infusion of 3 ug/kg/min; assay type: functional, Canis lupus familiaris
# Canis familiaris [17] = test: Time interval between start of drug treatment and first change in CFR pattern of blood flow at an iv dose of 100 ug/kg plus a constant infusion of 10 ug/kg/min; assay type: functional, Canis lupus familiaris
# Canis familiaris [18] = test: Effect on mean arterial pressure was determined at an iv dose of 10 ug/kg/60 min in a canine model; assay type: functional, Canis lupus familiaris, Artery
# Canis familiaris [19] = test: Effect on Cyclical Flow Reductions induced by intracoronary platelet aggregation in stenosed canine coronary arteries at an iv dose of 100 ug/kg plus a constant infusion of 10 ug/kg/min in canine model; assay type: functional, Canis lupus familiaris
# Homo sapiens [20] = organism: Homo sapiens; test: Effect on cAMP levels in washed platelets at a concentration of 0.3 uM; pmol/5E8 platelets; assay type: functional
# Canis familiaris [21] = test: Effect on heart rate was determined at an iv dose of 3 ug/kg/60 min in canine model; assay type: functional, Canis lupus familiaris
# Homo sapiens [22] = organism: Homo sapiens; test: Effect on aggregation of thrombin-stimulated washed human platelets at a concentration of 0.3 uM; assay type: functional
# Canis familiaris [23] = test: Time interval between end of drug treatment and restoration of CFR pattern of blood flow at an iv dose of 3 ug/kg/60 min in canine model; assay type: functional, Canis lupus familiaris
# Canis familiaris [24] = test: Effect on Cyclical Flow Reductions induced by intracoronary platelet aggregation in stenosed canine coronary arteries at an iv dose of 30 ug/kg plus a constant infusion of 3 ug/kg/min in canine model; assay type: functional, Canis lupus familiaris
# Canis familiaris [25] = test: Time interval between end of drug treatment and restoration of CFR pattern of blood flow at an iv dose of 10 ug/kg/60 min in a canine model; assay type: functional, Canis lupus familiaris
# Canis familiaris [26] = test: Effect on mean arterial pressure was determined at an iv dose of 100 ug/kg plus a constant infusion of 10 ug/kg/min in canine model; assay type: functional, Canis lupus familiaris, Artery
# Canis familiaris [27] = test: Effect on heart rate was determined at an iv dose of 10 ug/kg plus a constant infusion of 1 ug/kg/min in a canine model; assay type: functional, Canis lupus familiaris
# Homo sapiens [28] = organism: Homo sapiens; test: Effect on cAMP levels in washed platelets at a concentration of 0.1 uM; pmol/5E8 platelets; assay type: functional
# Canis familiaris [29] = test: Effect on heart rate was determined at an iv dose of 10 ug/kg/60 min in a canine model; assay type: functional, Canis lupus familiaris
# Canis familiaris [30] = test: Time interval between end of drug treatment and restoration of CFR pattern of blood flow at an iv dose of 10 ug/kg plus a constant infusion of 1 ug/kg/min in canine model; assay type: functional, Canis lupus familiaris
# Canis familiaris [31] = test: Time interval between end of drug treatment and restoration of CFR pattern of blood flow at an iv dose of 30 ug/kg plus a constant infusion of 3 ug/kg/min in canine model; assay type: functional, Canis lupus familiaris
structure (smiles),measurement,setting,value
Cc1c2c(cc3c(=O)cc(N4CCOCC4)oc13)CC(CN1CCN(C)CC1)O2 (stereo not given),Relative potency,Homo sapiens [1],0.5
same,IC50,Homo sapiens [2],5.6 µM
Cc1c2c(cc3c(=O)cc(N4CCOCC4)oc13)CC(CN1CCCCC1)O2 (stereo not given),Relative potency,Homo sapiens [1],0.5
same,IC50,Homo sapiens [2],6.2 µM
Cc1c2oc(CN3CCSCC3)cc2cc2c(=O)cc(N3CCOCC3)oc12,Mean arterial blood pressure,Canis familiaris [3],88%
same,Activity,Homo sapiens [4],25.7
same,Aggregation,Homo sapiens [4],14%
same,Activity,Homo sapiens [5],163.1
same,Offset time,Canis familiaris [6],>60 min
same,Mean arterial blood pressure,Canis familiaris [7],93%
same,Mean arterial blood pressure,Canis familiaris [8],99%
same,Heart rate,Canis familiaris [9],116%
same,CFR rating,Canis familiaris [10],3
same,CFR rating,Canis familiaris [11],1
same,Onset time,Canis familiaris [12],8 min
same,Activity,Homo sapiens [13],25.7
same,Aggregation,Homo sapiens [13],0%
same,CFR rating,Canis familiaris [14],3
same,Heart rate,Canis familiaris [15],112%
same,Onset time,Canis familiaris [16],1 min
same,Onset time,Canis familiaris [17],1 min
same,Mean arterial blood pressure,Canis familiaris [18],86%
same,CFR rating,Canis familiaris [19],3
same,Activity,Homo sapiens [20],36.1
same,Relative potency,Homo sapiens [1],4.5
same,Heart rate,Canis familiaris [21],104%
same,Aggregation,Homo sapiens [22],0%
same,IC50,Homo sapiens [2],0.35 µM
same,Offset time,Canis familiaris [23],27 min
same,CFR rating,Canis familiaris [24],2
same,Offset time,Canis familiaris [25],36 min
same,Mean arterial blood pressure,Canis familiaris [26],74%
same,Heart rate,Canis familiaris [27],106%
same,Activity,Homo sapiens [28],13.2
same,Heart rate,Canis familiaris [29],116%
same,Offset time,Canis familiaris [30],3 min
same,Offset time,Canis familiaris [31],34 min
Cc1c(OCCN2CCN(C)CC2)ccc2c(=O)cc(N3CCOCC3)oc12,Relative potency,Homo sapiens [1],1
same,IC50,Homo sapiens [2],8.6 µM
Cc1c2oc(CN3CCN(C)CC3)cc2cc2c(=O)cc(N3CCOCC3)oc12,Relative potency,Homo sapiens [1],0.9
same,IC50,Homo sapiens [2],9.1 µM
Cc1c2oc(CN3CCCC3)cc2cc2c(=O)cc(N3CCOCC3)oc12,Relative potency,Homo sapiens [1],0.5
same,IC50,Homo sapiens [2],15.4 µM
Cc1c2c(cc3c(=O)cc(N4CCOCC4)oc13)CC(CN1CCSCC1)O2 (stereo not given),Relative potency,Homo sapiens [1],2.4
same,IC50,Homo sapiens [2],3.6 µM
